≈ marks a conversion by molar mass, not a printed value. Read-outs that look alike come from different tables or passages of the source.
Assays:
P. falciparum NF54 = assay: In vitro [3H]hypoxanthine incorporation assay, P. falciparum NF54; format: cell-based, Plasmodium falciparum; conditions: for IC50: 16 h + 8 h incubation, read-out: IC50 (mean ± SD) for P. falciparum NF54 (n = 3)
Description: Human erythrocytes served as the host cells. In vitro antimalarial activity was measured using the [^3H]hypoxanthine incorporation assay ([36]) with strain NF54 of P. falciparum (obtained from Hoffmann-LaRoche Ltd.). The compounds were dissolved in dimethyl sulfoxide (DMSO) at a concentration of 10 mM, diluted in hypoxanthine-free culture medium, and titrated in duplicate over a 64-fold range in 96-well plates. […] The parasites were harvested onto glass fiber filters, and radioactivity was measured using a BetaPlate liquid scintillation counter (Wallac, Zurich, Switzerland). All assays were repeated at least three times. The results were recorded and expressed as a percentage of the untreated controls. […] In addition, for the PK-PD analysis of KAE609, an IC99 value was determined by transforming the data from a scintillation counter (Anscombe transformation) to account for Poissonian measurement error. […] Each of the three replicates was performed on a distinct 96-well plate. This has been accounted for in the fitting procedure by means of a Bayesian hierarchical model. The software used for parameter inference was Stan ([37]).

[1] = HT-equilibrium solubility; format: physicochemical; conditions: pH 6.8, HT-equilibrium solubility
Description: (§1) page 5: Running title: PreclinicalPK -PD of antimalarials 73 to high through put form at using in- house standard assa y protocols that are described in the 74 literature. […] 81 82 83 84 85 86 87 88 89 90 91 92 93 94 95 96 97 98 5

[2] = Parallel artificial membrane permeability assay (PAMPA); format: in vitro ADME; conditions: % fraction absorbed
Description: (§2) page 5: Running title: PreclinicalPK -PD of antimalarials 73 to high through put form at using in- house standard assa y protocols that are described in the 74 literature. 75 (a)HT-Equilibrium solubilit y at pH 6.8( 1); (b)Parallel Artificial Membrane P ermeability Assa y 76 expressed in % fraction absorbed (FA) ( 2,3 ); (c)Apparent permeability from apical to […] 78 tested; (d)intrinsic clearance in mouse liver micro somes ex pressed as µ L/ min/mg protein, in 79 the presen ce of liver enzym es ( 6); (e)Mous e plasm a protein binding using rapid equilibrium […] 81 82 83 84 85 86 87 88 89 90 91 92 93 94 95 96 97 98 5

Caco-2 cells = assay: Caco-2 permeability; format: in vitro ADME; conditions: apical to basolateral
Description: as §2

[3] = Mouse plasma protein binding, rapid equilibrium dialysis; format: in vitro ADME
Description: as §2

[4] = RBC to plasma partitioning; format: in vitro ADME; conditions: mean from 1 µM & 10 µM
Description: as §1

P. berghei = assay: Dose fractionation and PK-PD analysis of KAE609 in the P. berghei malaria mouse model; format: in vivo, NMRI mice; conditions: for Parasitemia (mean ± SD): 48 h posttreatment; for %T>TRE: simulated, 48-h period
Description: The total daily doses were either administered as a single dose (24 h postinfection) or divided into two oral doses (BID) or three oral doses (TID) per day (Table 1). Four mice were used for each regimen, with the control mice receiving vehicle only. Parasitemia, expressed as parasitized red blood cells (pRBCs) of >100 RBCs, was determined at 72 h postinfection (48 h after the initiation of treatment with KAE609) using standard flow cytometry techniques ([39]).
The concentration of compounds that inhibited 99% of P. berghei growth (IC99) was used to calculate the threshold (TRE = 2 × IC99) and the PK-PD indices. […] The Cmax/TRE, AUC0–48/TRE, and %T>TRE at different doses and dosing regimens were calculated using the Berkeley Madonna Software (version 8.0.1) (Berkeley Madonna, University of California, Berkeley, Berkeley, CA).
The relationship between PK-PD indices (log-transformed Cmax/TRE, log-transformed AUC0–48/TRE, and %T>TRE) and log-transformed parasitemia was analyzed by nonlinear regression analysis. An exploratory analysis of the PK-PD data was done using various models, such as maximum effect (Emax), sigmoid Emax, and with and without slope. A sigmoidal dose-response (variable-slope) model without constants was fitted to the data. GraphPad Prism version 5.02 for Windows (GraphPad Software, San Diego, CA, USA) was the software used for this analysis. The model choice was guided initially by a visual inspection of the y-by-x plots and then by correlation analysis and by evaluating the standard error of the estimate. The parasitemia (P) measures at any value of each different PK-PD index are expressed in equation 1, where EZ50 (otherwise referred to as EC50) is the value of the specific PK-PD index (Cmax/TRE, AUC0–48/TRE, and %T>TRE, respectively) required to produce 50% of the maximal effect, x is any of the PK-PD indices, and Pmax, Pmin, and s are as described previously. The values of x corresponding to the maximum reduction in parasitemia were derived by interpolation based on equation 1.

Caco-2 permeability = format: in vitro ADME; conditions: human, Caco-2; apical to basolateral
Description: as §2

[5] = tested on: P. berghei GFP ANKA malaria strain PbGFPCON; parameters: method as in PMID 20813948; conditions: cited from earlier work
[6] = interpolated from PK-PD model, 48 h observation
[7] = total dose 0.5 mg/kg p.o. as 1 x 0.5 mg/kg
[8] = total dose 0.5 mg/kg p.o. as 2 x 0.25 mg/kg (every 12 h)
[9] = total dose 0.5 mg/kg p.o. as 3 x 0.17 mg/kg (every 8 h)
[10] = total dose 1 mg/kg p.o. as 1 x 1 mg/kg
[11] = total dose 1 mg/kg p.o. as 2 x 0.5 mg/kg (every 12 h)
[12] = total dose 1 mg/kg p.o. as 3 x 0.33 mg/kg (every 8 h)
[13] = total dose 2 mg/kg p.o. as 1 x 2 mg/kg
[14] = total dose 2 mg/kg p.o. as 2 x 1 mg/kg (every 12 h)
[15] = total dose 2 mg/kg p.o. as 3 x 0.67 mg/kg (every 8 h)
[16] = total dose 4 mg/kg p.o. as 1 x 4 mg/kg
[17] = total dose 4 mg/kg p.o. as 2 x 2 mg/kg (every 12 h)
[18] = total dose 4 mg/kg p.o. as 3 x 1.33 mg/kg (every 8 h)
[19] = total dose 8 mg/kg p.o. as 1 x 8 mg/kg
[20] = total dose 8 mg/kg p.o. as 2 x 4 mg/kg (every 12 h)
[21] = total dose 8 mg/kg p.o. as 3 x 2.67 mg/kg (every 8 h)

C[C@H]1Cc2c([nH]c3ccc(F)cc23)[C@@]2(N1)C(=O)Nc1ccc(Cl)cc12 [(+)-4]
IC50 (P. falciparum NF54): 5.9 ± 0.9 nM
Solubility [1]: 137 µM (≈ 48.7 µg/mL)
PAMPA %FA [2]: 97%
Caco-2 Papp (A-B) (Caco-2 cells): 7.66 10-6 cm/sec
Mouse PPB [3]: 98.8%
RBC to Plasma Ratio [4]: 0.62

C[C@H]1Cc2c([nH]c3cc(F)ccc23)[C@@]2(N1)C(=O)Nc1ccc(Cl)cc12 [(+)-5]
IC50 (P. falciparum NF54): 4.3 ± 0.4 nM
Solubility [1]: 131 µM (≈ 46.6 µg/mL)
Caco-2 Papp (A-B) (Caco-2 cells): 4.33 10-6 cm/sec
Mouse PPB [3]: 98.5%
RBC to Plasma Ratio [4]: 1.18

C[C@H]1Cc2c([nH]c3cc(Cl)ccc23)[C@@]2(N1)C(=O)Nc1ccc(Cl)cc12 [(+)-3]
IC50 (P. falciparum NF54): 5.6 ± 0.7 nM
Solubility [1]: 8 µM (≈ 2.98 µg/mL)
Caco-2 Papp (A-B) (Caco-2 cells): 41.7 10-6 cm/sec
Mouse PPB [3]: 99.7%
RBC to Plasma Ratio [4]: 0.93

C[C@@H]1Cc2c([nH]c3cc(F)c(F)cc23)[C@]2(N1)C(=O)Nc1ccc(Cl)cc12 [(−)-6]
In vitro activity against P. falciparum (P. falciparum NF54): submicromolar
IC50 (P. falciparum NF54): 105 ± 20 nM
Solubility [1]: 112 µM (≈ 41.9 µg/mL)
PAMPA %FA [2]: 97%
Caco-2 Papp (A-B) (Caco-2 cells): 4.8 10-6 cm/sec
Mouse PPB [3]: 99.6%
RBC to Plasma Ratio [4]: 0.81

C[C@H]1Cc2c([nH]c3ccc(Cl)cc23)[C@@]2(N1)C(=O)Nc1ccc(Cl)cc12 [(+)-2]
IC50 (P. falciparum NF54): 5.6 ± 0.9 nM
Solubility [1]: 22 µM (≈ 8.19 µg/mL)
RBC to Plasma Ratio [4]: 0.77

C[C@@H]1Cc2c([nH]c3cc(Cl)c(F)cc23)[C@]2(N1)C(=O)Nc1ccc(Cl)cc12 [(−)-7]
In vitro activity against P. falciparum (P. falciparum NF54): submicromolar
IC50 (P. falciparum NF54): 210 ± 19 nM
Solubility [1]: 35 µM (≈ 13.7 µg/mL)
Caco-2 Papp (A-B) (Caco-2 cells): 1.73 10-6 cm/sec
Mouse PPB [3]: 99.4%
RBC to Plasma Ratio [4]: 0.52

C[C@H]1Cc2c([nH]c3cc(Cl)c(F)cc23)[C@@]2(N1)C(=O)Nc1ccc(Cl)cc12 [(+)-7 (KAE609)]
Threshold (TRE), 2 × P. falciparum IC99 (P. falciparum NF54): 1 ng/mL
IC50 (P. falciparum NF54; Plasmodium falciparum, NF54): 1.2 ± 0.2 nM
Type of killing suggested by PK-PD analysis (P. berghei; P. berghei malaria mouse model): time-dependent rather than concentration-dependent killing
AUC for reduction in parasitemia in the P. berghei murine malaria model (P. berghei; TRE = 48 ng/ml): 28,176 ng · h/ml
Cmax for reduction in parasitemia in the P. berghei murine malaria model (P. berghei; TRE = 48 ng/ml): 1,440 ng/ml
Cmax needed to reduce parasitemia by 50% in vivo (P. berghei; as derived from Cmax/TRE (Table 5)): 260 ng/mL
AUC0–48/TRE ratio likely to result in the maximum reduction in parasitemia (P. berghei; [6]): 587
Cmax/TRE ratio likely to result in the maximum reduction in parasitemia (P. berghei; [6]): 30
T>TRE likely to result in the maximum reduction in parasitemia (P. berghei; [6]): 100%
Hill slope, value (95% CI), PK-PD model for %T>TRE (P. berghei; parasitemia vs %T>TRE): −0.031 (−0.037 to −0.024)
Pmax, value (95% CI), PK-PD model for %T>TRE (P. berghei; parasitemia vs %T>TRE): 53.09 (32.28 to 87.50)
Pmin, value (95% CI), PK-PD model for %T>TRE (P. berghei; parasitemia vs %T>TRE): 0.15 (0.12 to 0.20)
Hill slope, value (95% CI), PK-PD model for AUC0–48/TRE (P. berghei; parasitemia vs AUC0–48/TRE): −1.63 (−2.04 to −1.22)
Pmax, value (95% CI), PK-PD model for AUC0–48/TRE (P. berghei; parasitemia vs AUC0–48/TRE): 32.66 (25.06 to 42.56)
Pmin, value (95% CI), PK-PD model for AUC0–48/TRE (P. berghei; parasitemia vs AUC0–48/TRE): 0.13 (0.09 to 0.20)
Parasitemia (mean ± SD) (P. berghei; [7]): 28.82 ± 4.49%
%T>TRE (P. berghei; [7]): 4.3%
Parasitemia (mean ± SD) (P. berghei; [8]): 38.28 ± 2.95%
%T>TRE (P. berghei; [8]): 0%
Parasitemia (mean ± SD) (P. berghei; [9]): 35.37 ± 5.32%
%T>TRE (P. berghei; [9]): 0%
Parasitemia (mean ± SD) (P. berghei; [10]): 17.82 ± 3.05%
%T>TRE (P. berghei; [10]): 10.7%
Parasitemia (mean ± SD) (P. berghei; [11]): 18.19 ± 6.81%
%T>TRE (P. berghei; [11]): 8.8%
Parasitemia (mean ± SD) (P. berghei; [12]): 20.31 ± 5.71%
%T>TRE (P. berghei; [12]): 0%
Parasitemia (mean ± SD) (P. berghei; [13]): 5.64 ± 1.69%
%T>TRE (P. berghei; [13]): 23.0%
Parasitemia (mean ± SD) (P. berghei; [14]): 6.48 ± 3.94%
%T>TRE (P. berghei; [14]): 22.7%
Parasitemia (mean ± SD) (P. berghei; [15]): 10.83 ± 4.67%
%T>TRE (P. berghei; [15]): 22.3%
Parasitemia (mean ± SD) (P. berghei; [16]): 0.63 ± 0.57%
%T>TRE (P. berghei; [16]): 54.5%
Parasitemia (mean ± SD) (P. berghei; [17]): 0.43 ± 0.38%
%T>TRE (P. berghei; [17]): 56.1%
Parasitemia (mean ± SD) (P. berghei; [18]): 0.55 ± 0.28%
%T>TRE (P. berghei; [18]): 57.3%
Parasitemia (mean ± SD) (P. berghei; [19]): 0.15 ± 0.03%
%T>TRE (P. berghei; [19]): 99.9%
Parasitemia (mean ± SD) (P. berghei; [20]): 0.18 ± 0.04%
%T>TRE (P. berghei; [20]): 99.8%
Parasitemia (mean ± SD) (P. berghei; [21]): 0.16 ± 0.02%
%T>TRE (P. berghei; [21]): 99.8%
Solubility ([1]; aqueous buffer, thermodynamic from solid): 39 µM (≈ 15.2 µg/mL)
Papp A→B (Caco-2 permeability): 1.69 ×10⁻⁶ cm/s
Single oral dose giving 50% reduction in parasitemia ([5]; P. berghei malaria mouse model): 1.2 mg/kg
Single oral dose giving 90% reduction in parasitemia ([5]; P. berghei malaria mouse model): 2.7 mg/kg
Single oral dose giving 99% reduction in parasitemia ([5]; P. berghei malaria mouse model): 5.3 mg/kg
Cure rate ([5]; single dose of 30 mg/kg): 50%
Animals cured ([5]; single oral dose of 100 mg/kg): 100%
Cure ([5]; thrice-daily oral doses of 50 mg/kg): complete cure

C[C@H]1Cc2c([nH]c3cc(F)c(F)cc23)[C@@]2(N1)C(=O)Nc1ccc(Cl)cc12 [(+)-6]
IC50 (P. falciparum NF54): 0.33 ± 0.06 nM
Solubility [1]: 169 µM (≈ 63.2 µg/mL)
Caco-2 Papp (A-B) (Caco-2 cells): 5.55 10-6 cm/sec
Mouse PPB [3]: 99.5%
RBC to Plasma Ratio [4]: 1.12

Reference: article PMC4335872, “Pharmacokinetic-Pharmacodynamic Analysis of Spiroindolone Analogs and KAE609 in a Murine Malaria Model” (Antimicrobial Agents and Chemotherapy, 2015)
